According to US20260130933A1, “PHARMACEUTICAL COMPOSITION FOR PREVENTION OR TREATMENT OF NEPHROPATHY AND/OR DIABETES MELLITUS, COMPRISING ENAVOGLIFLOZIN” (DAEWOONG PHARMACEUTICAL CO., LTD., priority 2022, published 2026):

Assay: Example 2: phase 3 trial, enavogliflozin 0.3 mg vs dapagliflozin 10 mg once a day for 24 weeks added to metformin in patients with type 2 diabetes (same efficacy, exploratory and safety endpoints)
Assay type: in vivo, human
Protocol: Subjects who met the inclusion/exclusion criteria were administered a placebo of the clinical trial drug under single-blind (subject blinding) conditions during a 2-week run-in period while continuing to receive metformin. […] The randomized subjects were administered two tablets of the clinical trial drug for each administration group once a day, and then visited the institution at weeks 6, 12, 18, and 24 during the 24-week administration period to conduct efficacy and safety evaluations.
• 1. Change in HbA1c at week 24 after administration of clinical trial drug compared to Visit 2 (randomization)
• 1. Change in HbA1c at each time point of weeks 6, 12, and 18 after administration of clinical trial drug compared to Visit 2 (randomization) • 2. Change in FPG at each time point of weeks 6, 12, 18, and 24 after administration of clinical trial drug compared to Visit 2 (randomization) • 3. Proportion of subjects achieving HbA1c<7% at each time point of weeks 6, 12, 18, and 24 after administration of clinical trial drug • 4. Proportion of subjects achieving HbA1c<6.5% at each time point of weeks 6, 12, 18, and 24 after administration of clinical trial drug • 5. Proportion of subjects achieving therapeutic response (HbA1c change (HbA1c at Visit 2-HbA1c at each evaluation time point)>0.5% or HbA1c<7% at each evaluation time point compared to Visit 2 (randomization)) at each time point of weeks 6, 12, 18 and 24 after administration of clinical trial drug
• 1. Change in fasting c-peptide at each time point of weeks 6, 12, 18, and 24 after administration of clinical trial drug compared to Visit 2 (randomization) • 2. Change in body weight at each time point of weeks 6, 12, 18, and 24 after administration of clinical trial drug compared to Visit 2 (randomization) • 3. Change in fasting lipid concentration (total cholesterol, LDL-C, HDL-C, and triglycerides) at each time point of weeks 6, 12, 18, and 24 after administration of clinical trial drug compared to Visit 2 (randomization) • 4. Changes in systolic or diastolic blood pressure at each time point of weeks 6, 12, 18, and 24 after administration of clinical trial drug compared to Visit 2 (randomization) • 5. Changes in β-cell function and insulin resistance measured by HOMA-β and HOMA-IR at each time point of weeks 6, 12, 18, and 24 after administration of clinical trial drug compared to Visit 2 (randomization) • 6. Changes in renal function-related indicators (UACR, UGCR) measured by UACR at each time point of weeks 6, 12, 18, and 24 after administration of clinical trial drug compared to Visit 2 (randomization) • 7. Changes in obesity-related indicators (adiponectin, leptin) at each time point of weeks 6, 12, 18, and 24 after administration of clinical trial drug compared to Visit 2 (randomization)

[1] = week 6, modified per-protocol set 1, enavogliflozin 0.3 mg, dapagliflozin 10 mg
[2] = week 6, per-protocol set, enavogliflozin 0.3 mg, dapagliflozin 10 mg
[3] = week 12, modified per-protocol set 1, enavogliflozin 0.3 mg, dapagliflozin 10 mg

Structure (SMILES): CCOc1ccc(Cc2cc([C@@H]3O[C@H](CO)[C@@H](O)[C@H](O)[C@H]3O)ccc2Cl)cc1 [Dapagliflozin, reference compound]
- HOMA-IR, Median (Week 24, PPS): 1.82
- HOMA-β change from baseline, ANCOVA LS mean (SE) (Week 24, PPS): 11.93
- HOMA-β change from baseline, Mean (SD) (Week 24, PPS): 12.23
- HOMA-β change from baseline, Median (Week 24, PPS): 5.30
- HOMA-β, Mean (SD) (Week 24, PPS): 56.67
- HOMA-β, Median (Week 24, PPS): 46.75
- Leptin change from baseline, ANCOVA LS mean (SE) (Week 24, PPS): -1.28 ng/mL
- Leptin change from baseline, Mean (SD) (Week 24, PPS): -1.31 ng/mL
- Leptin change from baseline, Median (Week 24, PPS): -1.17 ng/mL
- Leptin, Mean (SD) (Week 24, PPS): 10.37 ng/mL
- Leptin, Median (Week 24, PPS): 6.69 ng/mL
- UACR change from baseline, ANCOVA LS mean (SE) (Week 24, PPS): -17.37 g/kg
- UACR change from baseline, Mean (SD) (Week 24, PPS): -25760 mg/kg
- UACR change from baseline, Median (Week 24, PPS): -1.70 g/kg
- UACR, Mean (SD) (Week 24, PPS): 31370 mg/kg
- UACR, Median (Week 24, PPS): 11.10 g/kg
- UGCR change from baseline, ANCOVA LS mean (SE) (Week 24, PPS): 44.94 mg/mg
- UGCR change from baseline, Mean (SD) (Week 24, PPS): 43.01 mg/mg
- UGCR change from baseline, Median (Week 24, PPS): 42.01 mg/mg
- UGCR, Mean (SD) (Week 24, PPS): 45.27 mg/mg
- UGCR, Median (Week 24, PPS): 43.81 mg/mg
- HDL-C change from baseline, ANCOVA LS mean (SE) (Week 24, mPPS1): 3.19(0.66) mg/dL
- HDL-C change from baseline, Mean (SD) (Week 24, mPPS1): 3.55(5.30) mg/dL
- HDL-C change from baseline, Median (Week 24, mPPS1): 3.00 mg/dL
- HDL-C, Mean (SD) (Week 24, mPPS1): 50.45(9.72) mg/dL
- HDL-C, Median (Week 24, mPPS1): 50.00 mg/dL
- LDL-C change from baseline, ANCOVA LS mean (SE) (Week 24, mPPS1): 0.93(1.98) mg/dL
- LDL-C change from baseline, Mean (SD) (Week 24, mPPS1): 2.68(20.64) mg/dL
- LDL-C change from baseline, Median (Week 24, mPPS1): 2.00 mg/dL
- LDL-C, Mean (SD) (Week 24, mPPS1): 78.84(25.81) mg/dL
- LDL-C, Median (Week 24, mPPS1): 76.00 mg/dL
- Triglycerides change from baseline, ANCOVA LS mean (SE) (Week 24, mPPS1): −6.70(5.28) mg/dL
- Triglycerides change from baseline, Mean (SD) (Week 24, mPPS1): −10.64(52.51) mg/dL
- Triglycerides change from baseline, Median (Week 24, mPPS1): -7.00 mg/dL
- Triglycerides, Mean (SD) (Week 24, mPPS1): 122.28(58.14) mg/dL
- Triglycerides, Median (Week 24, mPPS1): 110.00 mg/dL
- Diastolic blood pressure change from baseline, ANCOVA LS mean (SE) (Week 24, mPPS2): −4.26 mmHg
- Diastolic blood pressure change from baseline, Mean (SD) (Week 24, mPPS2): −3.87 mmHg
- Diastolic blood pressure change from baseline, Median (Week 24, mPPS2): −4.00 mmHg
- Diastolic blood pressure, Mean (SD) (Week 24, mPPS2): 72.05 mmHg
- Diastolic blood pressure, Median (Week 24, mPPS2): 71.00 mmHg
- Systolic blood pressure change from baseline, ANCOVA LS mean (SE) (Week 24, mPPS2): −6.57(1.04) mmHg
- Systolic blood pressure change from baseline, Mean (SD) (Week 24, mPPS2): −6.03(12.13) mmHg
- Systolic blood pressure change from baseline, Median (Week 24, mPPS2): −7.00 mmHg
- Systolic blood pressure, Mean (SD) (Week 24, mPPS2): 121.40(11.90) mmHg
- Systolic blood pressure, Median (Week 24, mPPS2): 122.00 mmHg
- FPG change from baseline, LS mean (SE) (week 6): −23.81(2.23) mg/dL
- HOMA-IR change from baseline, LS mean (SE) (week 6): −1.31(0.15)
- HOMA-β change from baseline, LS mean (SE) (week 6): −1.79(5.59)
- HbA1c change from baseline, LS mean (SE) (week 6): −0.63(0.04) % p
- LDL-C change from baseline, LS mean (SE) (week 6): 4.20(1.95) mg/dL
- Subjects achieving HbA1c target of <7% (week 6): (51.69) %
- Subjects achieving HbA1c<6.5% (week 6): 14.61%
- Subjects achieving therapeutic response (HbA1c change >0.5% or HbA1c<7%) (week 6): 79.78%
- UACR change from baseline, LS mean (SE) (week 6): 8.13(10.88) g/kg
- UGCR change from baseline, LS mean (SE) (week 6): 50.10(2.80) mg/mg
- diastolic blood pressure change from baseline, LS mean (SE) (week 6): −1.47(0.72) mmHg
- fasting c-peptide change from baseline, LS mean (SE) (week 6): −0.07(0.02) ng/ml
- leptin change from baseline, LS mean (SE) (week 6): −1.62(0.47) ng/mL
- Subjects achieving HbA1c target of <7% (week 6, listed as dapagliflozin): 51.69%
- Change from baseline in Total cholesterol, ANCOVA LS mean (SE) [1]: 6.87(2.27) mg/dL
- Change from baseline in Total cholesterol, Mean (SD) [1]: 7.71(22.44) mg/dL
- Change from baseline in total cholesterol, Median [1]: 7.00 mg/dL
- fasting Total cholesterol, Mean (SD) [1]: 145.62(31.91) mg/dL
- fasting Total cholesterol, Median [1]: 145.50 mg/dL
- Change from baseline in FPG, ANCOVA LS mean (SE) [2]: -23.81 mg/dL
- Change from baseline in FPG, Mean (SD) [2]: -24.90 mg/dL
- Change from baseline in FPG, Median [2]: -24.00 mg/dL
- Change from baseline in HbA1c, ANCOVA LS mean (SE) [2]: −0.63 % p
- Change from baseline in HbA1c, Mean (SD) [2]: −0.58 % p
- Change from baseline in HbA1c, Median [2]: −0.59 % p
- Change from baseline in body weight, ANCOVA LS mean (SE) [2]: −1.61(0.21) kg
- Change from baseline in body weight, Mean (SD) [2]: −1.60(1.25) kg
- Change from baseline in body weight, Median [2]: -1.50 kg
- Change from baseline in fasting c-peptide, ANCOVA LS mean (SE) [2]: −0.07(0.02) ng/mL
- Change from baseline in fasting c-peptide, Mean (SD) [2]: −0.07(0.18) ng/mL
- Change from baseline in fasting c-peptide, Median [2]: -0.07 ng/mL
- FPG, Mean (SD) [2]: 124.37 mg/dL
- FPG, Median [2]: 122.00 mg/dL
- HbA1c, Mean (SD) [2]: 7.10%
- HbA1c, Median [2]: 6.98%
- Subjects achieving HbA1c target of <6.5%, (%) [2]: (14.61) %
- Subjects achieving therapeutic glycemic response, (%) [2]: (79.78) %
- body weight, Mean (SD) [2]: 68.88(11.86) kg
- body weight, Median [2]: 66.90 kg
- fasting c-peptide, Mean (SD) [2]: 0.66(0.20) ng/mL
- fasting c-peptide, Median [2]: 0.63 ng/mL
- FPG change from baseline, LS mean (SE) (week 12): −30.11(2.03) mg/dL
- HOMA-IR change from baseline, LS mean (SE) (week 12): −1.60(0.17)
- HOMA-β change from baseline, LS mean (SE) (week 12): 8.75(3.15)
- HbA1c change from baseline, LS mean (SE) (week 12): −0.79(0.05) % p
- LDL-C change from baseline, LS mean (SE) (week 12): 0.56(1.73) mg/dL
- Subjects achieving HbA1c target of <7% (week 12): (63.64) %
- Subjects achieving HbA1c<6.5% (week 12): 26.14%
- Subjects achieving therapeutic response (HbA1c change >0.5% or HbA1c<7%) (week 12): 79.55%
- UACR change from baseline, LS mean (SE) (week 12): −3.38(7.57) g/kg
- UGCR change from baseline, LS mean (SE) (week 12): 45.14(2.66) mg/mg
- diastolic blood pressure change from baseline, LS mean (SE) (week 12): −4.35(0.81) mmHg
- fasting c-peptide change from baseline, LS mean (SE) (week 12): −0.09(0.02) ng/ml
- leptin change from baseline, LS mean (SE) (week 12): −2.70(0.51) ng/mL
- Subjects achieving HbA1c target of <7% (week 12, listed as dapagliflozin): 63.64%
- Change from baseline in Total cholesterol, ANCOVA LS mean (SE) [3]: 4.25(2.04) mg/dL
- Change from baseline in Total cholesterol, Mean (SD) [3]: 5.47(18.88) mg/dL
- Change from baseline in total cholesterol, Median [3]: 5.00 mg/dL
